Data reported in US20240368123A1, “AROMATIC RING-CONTAINING BIOLOGICAL ANTAGONIST, AND PREPARATION METHOD THEREFOR AND USE THEREOF” (SHANGHAI HANSOH BIOMEDICAL CO., LTD., priority 2021, published 2024).

Key:
[1] = Rat pharmacokinetic evaluation test, oral administration; assay type: in vivo; conditions: male, SD rats, p.o. 5 mg/kg, plasma; for MRT inf: read-out: MRT0-∞
Description: SD rats were used as test animals to study the pharmacokinetic behavior of the compounds of the present invention in the rat body (plasma) after oral administration at a dose of 5 mg/kg.
3 SD rats/group, male, from Shanghai Jiesijie Experimental Animal Co., Ltd., animal production license number (SCXK (Shanghai) 2013-0006 N0.311620400001794).
• 0.5% CMC-Na (1% Tween80) was dissolved with ultrasound, and formulated into a clear solution or homogeneous suspension.
• p.o. respectively after the rats were fasted overnight; • the p.o. dose was 5 mg/kg and the administration volume was 10 mL/kg.
After oral administration of rats, 0.2 mL of blood was collected from the jugular vein at 0.25 h, 0.5 h, 1.0 h, 2.0 h, and 4.0 h, placed in an EDTA-2K test tube, centrifuged at 6000 rpm for 6 min at 4° C. to separate plasma which was stored at −80° C.; the rats can eat 4 h after administration.
• 1) 160 μL of acetonitrile was added to 40 μL of plasma sample for precipitation, mixed and centrifuged at 3500×g for 5 to 20 min. • 2) the treated supernatant solution was taken and subjected to LC/MS/MS to analyze the concentrations of the test compounds. LC/MS/MS analysis instrument: AB Sciex API 4000 Qtrap.
• Liquid phase conditions: Shimadzu LC-20AD pump • chromatographic column: AgilentZORBAX XDB-C18 (50×2.1 mm, 3.5 μm) mobile phase: liquid A was 0.1% aqueous formic acid solution, liquid B was acetonitrile • flow rate: 0.4 mL/min • Elution time: 0-4.0 min, the eluent was as follows:
The main pharmacokinetic parameters were calculated using WinNonlin 6.1.

[2] = Liver microsomal metabolism stability test, rat; assay type: in vitro ADME; conditions: for half-life at 1 μM: rat liver microsomes 0.5 mg/mL, compound 1 μM, NADPH/UDPGA; for Remaining rate: rat liver microsomes, 60 min
Description: (§1) The purpose of this experiment was to detect the stability of the example compounds in liver microsomes of rats, dogs and humans.
(§2) • Formulation of working solution of compounds: compound stock solution was added to phosphate buffer to a final concentration of 20 μM.
(§3) Dilution was performed with 100 mM phosphate buffer to a final concentration of 0.625 mg/mL.
(§4) NADPH (reduced nicotinamide adenine dinucleotide phosphate) and UDPGA (uridine diphosphate glucuronic acid) were weighed, 100 mM phosphate buffer was added, and the final concentration was 20 mM.
(§5) 1 mg of Alamethicin was weighed, and 200 μL of DMSO was added to formulate a 5 mg/mL solution. Then dilution was performed with phosphate buffer to a final concentration of 50 μg/mL.
(§6) Stop solution: the stop solution contains 100 ng/mL labetalol hydrochloride and 400 ng/mL tolbutamide and cold acetonitrile as internal standard.
(§7) 400 μL of formulated liver microsomes, 25 μL of compound working solution and 25 μL of Alamethicin were added in sequence to the 96-well plate, and pre-incubated at 37° C. for 10 min. Then 50 μL of formulated NADPH/UDPGA was added to start the reaction and the mixture was incubated at 37° C. The total volume of the reaction system was 500 μL. The final contents of each component are as follows:
(§8) • Instrument: Shimadzu LC-30 AD; • Chromatographic column: XBridge® C18 (50*4.6 mm, 5 μm particle size); • Mobile phase: A: 0.1% formic acid solution, B: methanol Wash gradient: 0.2-1.6 min 5% A to 95% A, 3.0-3.1 min 95% A to 5% A Run time: 4.0 min.
(§9) • Instrument: API5500 liquid chromatography mass spectrometer, AB Sciex; • Ion source: electrospray ionization source (ESI); • Drying gas: N2, temperature 500° C.; • Electrospray voltage: 5000 V; • Detection mode: positive ion detection; • Scanning mode: reaction monitoring (MRM) mode.

[3] = Liver microsomal metabolism stability test, dog; assay type: in vitro ADME; conditions: for half-life at 1 μM: dog liver microsomes 0.5 mg/mL, compound 1 μM, NADPH/UDPGA; for Remaining rate: dog liver microsomes, 60 min
Description: as §1, §2, §3, §4, §5, §6, §7, §8, §9

[4] = biological target: T1, CYP450 enzyme subtype 2C19 (Homo sapiens, UniProt P33261); assay: CYP enzyme single point inhibition test, 2C19; assay type: in vitro ADME; conditions: human liver microsomes, single point method
T1 construct: Human liver microsome incubation system was used; from tissue; host or cells: human liver microsomes
T1 sequence (P33261 whole entry): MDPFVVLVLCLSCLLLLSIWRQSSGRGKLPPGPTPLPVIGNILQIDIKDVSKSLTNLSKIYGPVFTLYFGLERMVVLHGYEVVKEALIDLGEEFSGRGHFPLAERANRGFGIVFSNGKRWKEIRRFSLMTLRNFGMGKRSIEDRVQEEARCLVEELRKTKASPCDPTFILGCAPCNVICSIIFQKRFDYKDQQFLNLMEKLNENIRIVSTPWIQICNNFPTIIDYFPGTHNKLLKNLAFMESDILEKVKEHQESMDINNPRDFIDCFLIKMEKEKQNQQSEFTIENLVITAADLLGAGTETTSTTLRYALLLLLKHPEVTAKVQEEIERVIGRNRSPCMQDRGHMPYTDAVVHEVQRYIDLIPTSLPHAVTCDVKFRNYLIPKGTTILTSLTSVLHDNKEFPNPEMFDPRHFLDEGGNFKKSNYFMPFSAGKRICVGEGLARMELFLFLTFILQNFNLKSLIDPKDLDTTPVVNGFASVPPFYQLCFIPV
Description: (§10) Human liver microsome incubation system was used, and the single point method was used to quickly predict the inhibition on CYP450 enzyme subtypes (1A2, 2C19, 2D6, 3A4-M, and 3A4-T) by compounds.
(§11) For 2.5 mM NADPH, 4.165 mg of NADPH (reduced nicotinamide adenine dinucleotide phosphate) was weighed and 100 mM phosphate buffer was added to 2 mL. For 0.25 mg/mL microsomes, 50 μL of 20 mg/mL microsomes was added to 4 mL of 100 mM phosphate buffer and mixed evenly.
(§12) The test example compound was weighed, diluted to 10 mM with DMSO, and then diluted to 100 μM with 100 mM phosphate buffer.
(§13) • 1. 40 μL of liver microsomes, 10 μL of substrate, and 10 μL of test compound were added in a 96-well plate and the mixture was pre-incubated for 3 min. • 2. 40 μL of NADPH was added. • 3. At 20 min, 300 μL of acetonitrile stop solution containing internal standard was added. • 4. The mixture was centrifuged and the sample was loaded.

[5] = biological target: T2, CYP450 enzyme subtype 3A4-T (Homo sapiens, UniProt P08684); assay: CYP enzyme single point inhibition test, 3A4-T; assay type: in vitro ADME; conditions: human liver microsomes, single point method
T2 construct: Human liver microsome incubation system was used; from tissue; host or cells: human liver microsomes
T2 sequence (P08684 whole entry): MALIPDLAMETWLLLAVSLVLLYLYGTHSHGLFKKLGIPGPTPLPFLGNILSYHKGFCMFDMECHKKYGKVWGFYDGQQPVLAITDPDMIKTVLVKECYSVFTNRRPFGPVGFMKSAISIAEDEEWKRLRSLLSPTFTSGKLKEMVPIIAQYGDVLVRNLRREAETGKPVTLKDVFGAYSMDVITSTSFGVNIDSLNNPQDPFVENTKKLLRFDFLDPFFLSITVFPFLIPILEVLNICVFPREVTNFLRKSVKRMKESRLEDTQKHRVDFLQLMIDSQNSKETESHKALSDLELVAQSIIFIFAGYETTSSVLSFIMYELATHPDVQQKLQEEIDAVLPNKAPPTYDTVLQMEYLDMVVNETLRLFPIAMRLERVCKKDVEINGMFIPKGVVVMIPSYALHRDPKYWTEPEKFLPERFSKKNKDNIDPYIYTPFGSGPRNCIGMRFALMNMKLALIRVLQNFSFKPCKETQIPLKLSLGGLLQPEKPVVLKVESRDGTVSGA
Description: as §10, §11, §12, §13

[6] = system: spontaneously hypertensive rat (SHR) model; assay: Pharmacodynamic evaluation on blood pressure in spontaneously hypertensive rats; assay type: in vivo; conditions: P.O, 30 mpk, 1-8 h after administration, P<0.05
Source text: This experiment used a spontaneously hypertensive rat (SHR) model to evaluate the pharmacodynamic effect of the test compounds on the blood pressure and heart rate of the model.
Kent Scientific CODA non-invasive blood pressure system.
Spontaneously hypertensive rats (SHR) were provided by Beijing Vital River Laboratory Animal Technology Co., Ltd., male, 150-200 g, 13-15 weeks old, 50 rats.
After animals arrived at the experimental facility, the animals were adapted to the animal facility for 5-7 days. 4.2 After the adaptation period, the animals were adapted to the tail oversleeve restrain for 3 days, and the tail oversleeve restrain was performed twice a day. After the last restrain adaptation, the basal blood pressure was measured, and the animals were randomly divided into groups according to the basal blood pressure. There was no significant difference between the average systolic blood pressure of animals in each group, and the number of animals in each group met the requirements of statistical testing and pharmacodynamic guidelines. 4.3 On the second day after grouping, the animals were administered according to experimental design and grouping (P.O, 5 mL/kg), and the systolic blood pressure (SBP), diastolic blood pressure (DBP), mean arterial pressure (MAP) and heart rate (HR) of the animals were measured before administration and at 1, 2, 4, 6, 8 and 24 h after administration using tail oversleeve method.
Statistical differences between groups were analyzed by Two-way ANOVA test. Among them, P<0.05 indicated a significant difference, and P<0.01 indicated an extremely significant difference.

Molecule `CCCCC1=NC2(CCCC2)C(=O)N1Cc1ccc(-c2ccccc2S(=O)(=O)Nc2noc(C)c2Br)c(COCC)c1` [Example 46, 2-[4-[(2-butyl-4-oxo-1,3-diazaspiro[4.4]non-1-en-3-yl)methyl]-2-(ethoxymethyl)phenyl]-N-(4-bromo-5-methyl-isoxazol-3-yl)benzsulfamide] has an AUC(0-inf) [1] of 13800 ng·h/mL, a Cmax [1] of 2300 ng/mL and a Tmax [1] of 30 min. The MRT inf [1] was 396 min, the half-life at 1 μM [2] was 24.3 min and the Remaining rate [2] was 17.3%. The half-life at 1 μM [3] was 22.2 min, the Remaining rate [3] was 15.4% and the IC50 [4] was greater than 100 µM. It also gave an IC50 [5] greater than 100 µM.

Molecule `[2H]C([2H])(OCC)c1cc(CN2C(=O)C3(CCCC3)N=C2CCCC)ccc1-c1ccccc1S(=O)(=O)Nc1noc(C)c1Cl` [Example 49, 4′-((2-butyl-4-oxo-1,3-diazospiro[4.4]non-1-en-3-yl)methyl)-N-(4-chloro-5-methylisoxazol-3-yl)-2′-(ethoxydeuteriummethyl)-[1,1′-biphenyl]-2-sulfonamide] has a half-life at 1 μM [2] of 24 min, a Remaining rate [2] of 17.1% and a half-life at 1 μM [3] of 29.5 min. For the same molecule, the Remaining rate [3] was 23.9% and the “blood pressure (systolic blood pressure, diastolic blood pressure, mean arterial pressure) compared with the vehicle group” value [6] was “significantly reduced blood pressure”.

For `CCCCC1=NC2(CC3CC3C2)C(=O)N1Cc1ccc(-c2ccccc2S(=O)(=O)Nc2noc(C)c2C)c(COCC)c1` (stereo not shown) [Example 87, 4′-((2′-butyl-5′-oxaspiro[bicyclo[3.1.0]hexane-3,4′-imidazole]-1′(5′H)-yl)methyl)-N-(4,5-dimethylisoxazol-3-yl)-2′-(ethoxymethyl)-[1,1′-biphenyl]-2-sulfonamide], the AUC(0-inf) [1] was 9760 ng·h/mL, the Cmax [1] was 2630 ng/mL and the Tmax [1] was 30 min. The MRT inf [1] was 228 min.
